We go through 19 molecules from patent US9169295B2, “Macrocycles and macrocycle stabilized peptides” (Bristol-Myers Squibb Company, priority 2010, dated 2015).

For data set [1] the following is noted: the molecule shown is the open-chain precursor; other bond; 16-membered ring; TfOH; MeNO2; 13.4 mM; 25.0 °C.
For data set [2] the following is noted: other bond.
Data set [3] can be described thus: far-UV circular dichroism (CD) spectra with secondary structure estimated by deconvolution (α-helicity of MSP vs linear peptide). The format is physicochemical. The following applies: 25° C. As to the method:
To examine the α-helicity of the macrocycle stabilized peptides prepared according to the methods of the present invention, the far-UV circular dichrosim (CD) spectra of linear and macrocyclic peptides were measured and compared. Linear peptide of Example 93 and MSP of Example 93 as dry powder were prepared. A sample of each was weighed into a fresh 20 mL glass vial, and dissolved in anhydrous methanol (B&J), with vortexing for ˜1 min, to yield solutions with concentrations of 200 μM. The concentrations were based on the observed mass of peptide and the respective formula weights. The solutions were transferred to 1.8 mL polypropylene tubes, and centrifuged in a table top microcentrifuge for 5 min at rt and 14,000 rpm to pellet any insoluble material. The supernatants were transferred to clean 1.8 mL tubes for preparing final samples for analysis by circular dichroism (CD). Two sets of samples were prepared, one in 100% methanol at 200 μM peptide, the other in 50% aqueous methanol at 100 μM peptide prepared by adding an equal volume of ddH2O to stock methanol solutions.
Samples were transferred to clean 1 mm quartz cuvettes and CD analysis performed in a JASCO J=815 instrument, and temperature maintained at 25° C. Each peptide sample was scanned from 200-450 nm, using a bandwidth of 1.00 nm, standard sensitivity, data pitch of 0.1 nm, digital integration time of 4.0 sec, a scan speed of 20 nm/min, and 6 acquisitions averaged per sample. Blank solvent samples (100% methanol and 50% aqueous methanol) were recorded simultaneously and subtracted from the peptide spectra prior to final analysis. For calculation of mean residue molar ellipticity (Θ^MRW), the peptide concentration was multiplied by 12 to reflect the number of peptide residues in each molecule. Following blank corrections, the CD data for each peptide in each solvent was corrected for total mean residue ellipticity, and the secondary structure composition estimated by deconvolution using CDPRO module within the JASCO software. Three different algorithms were used for convolution (SELCON, CDSSTR and CONTIN), using the data obtained from 200-240 nm and a 56 protein reference data set. Each algorithm yielded similar distribution of secondary structure elements, and the final results reported as the mean and standard deviation from the three deconvolutions.
The deconvolution algorithms yield secondary structural elements of two types of α-helical structure, two types of […] structure, β-turn structure, and unstructured or random structure. The results reflect the average of summed α-helical forms, summed β-strand forms, the β-turn and unstructured forms from the three algorithms for the peptides in 100% methanol. The overlaid spectra illustrate the difference in signal in the far uv-region (200-240 nm) for the two related peptides in 100% methanol.

[4] abbreviates: from (5-(hydroxymethyl)thiazol-2-yl)-Val(D/L)-Ala-Ala-Tyr-NH2?, 19-membered ring, TfOH, MeNO2, 11.0 mM, 25.0 °C, 2 steps.
[5] abbreviates: from (5-(hydroxymethyl)thiazol-2-yl)-Val(D/L)-Gly-Tyr-NH2?, 16-membered ring, TfOH, MeNO2, 25.0 °C, 2 steps.
[6] abbreviates: 50% aqueous methanol, 100 μM peptide.
Where [7] appears, read: 100% methanol, 200 μM peptide, CD 200-240 nm, mean of three deconvolution algorithms.
Where [8] appears, read: from (5-(hydroxymethyl)thiazol-2-yl)-Val(D/L)-Ala-Ala-Ala-Ala-Tyr-NH2?, 25-membered ring, TfOH, MeNO2, 6.0 mM, 25.0 °C, 2 steps.

Read-outs that look alike come from different tables or passages of the source.

Consider “(5-(hydroxymethyl)thiazol-2-yl)-Gly-Gly-Tyr-NH2?”, for which the ring closure, conversion in data set [1] was 60%.

With `CC(C)[C@H]1NC2=NC=C(Cc3cc(ccc3O)C[C@@H](C(N)=O)NC(=O)[C@H](C)NC(=O)[C@H](C)NC1=O)S2` [Thia-V(d)AAY], the ring closure, yield after HPLC in data set [2] (setting [4]) is 16.4%. `CC(C)[C@H]1NC2=NC=C(Cc3cc(ccc3O)C[C@@H](C(N)=O)NC(=O)CNC1=O)S2` [Thia-V(d)GY]: the ring closure, yield after HPLC in data set [2] (setting [5]) amounted to 22%.

Consider `C[C@@H]1NC(=O)CNC2=NC=C(Cc3cc(ccc3O)C[C@@H](C(=O)NCC(=O)O)NC(=O)[C@H](C)NC(=O)[C@H](C)NC1=O)S2` [Macrocycle], for which the ring closure, yield after HPLC in data set [2] (from (5-(hydroxymethyl)thiazol-2-yl)-Gly-Ala-Ala-Ala-Tyr-Gly-OtBu?, 22-membered ring, TfOH, NMM quench, nitroethane, 5.7 mM, 25.0 °C) worked out at 35%.

`C[C@@H]1NC(=O)[C@H](C)NC(=O)[C@H](Cc2ccccc2)NC(=O)CNC2=NC=C(Cc3cc(ccc3O)C[C@@H](C(N)=O)NC1=O)S2` [Thia-G-F-A-A-Y—CONH2 (SEQ ID NO. 10) macrocycle]: the ring closure, yield after HPLC in data set [2] (from (5-(hydroxymethyl)thiazol-2-yl)-Gly-Phe-Ala-Ala-Tyr-NH2?, 22-membered ring, TfOH, MeNO2, 11.5 mM, 25.0 °C, 2 steps) is 68.5%. In data set [2] (from (5-(hydroxymethyl)thiazol-2-yl)-dVal-Ala-Ala-Gly-Tyr-NH2?, 22-membered ring, TfOH, MeNO2, 6.83 mM, 25.0 °C, 2 steps), `CC(C)[C@H]1NC2=NC=C(Cc3cc(ccc3O)C[C@@H](C(N)=O)NC(=O)CNC(=O)[C@H](C)NC(=O)[C@H](C)NC1=O)S2` [Thia-V(d)AAGY Macrocycle] showed a ring closure, yield after HPLC of 38.7%. Regarding `C[C@H](NC(=O)OCC1c2ccccc2-c2ccccc21)C(=O)N[C@@H](C)C(=O)NNC(=O)[C@@H](C)[C@@H](Cc1ccc(O)cc1)C(=O)N[C@@H](C)C(=O)N[C@@H](C)C(=O)NCC(=O)N[C@H]1Cc2ccc(O)c(c2)CC2=CN=C(NCCCNC(=O)[C@H](C)NC(=O)[C@H](C)NC(=O)[C@H](C)NC1=O)S2` [Example 91, C-terminal Macrocycle Peptide], in data set [3] (setting [6]), the unstructured conformation is recorded as 32%, the α-helical structure is 23% and the β-structure is recorded as 45%. Further, in data set [3] (setting [7]), the unstructured conformation is 27%; the α-helical conformation is 53%; the “β-structure (β-strand and β-turn conformation)” value was 22%. In data set [2] (setting [5]), `CC(C)[C@H]1NC2=NC=C(Cc3cc(ccc3O)C[C@@H](C(N)=O)NC(=O)CNC1=O)S2` [Thia-V(l)GY] had a ring closure, yield after HPLC of 19%. Consider `CC(C)[C@@H]1NC2=NC=C(Cc3cc(ccc3O)C[C@@H](C(N)=O)NC(=O)[C@H](C)NC(=O)[C@H](C)NC(=O)[C@H](C)NC(=O)[C@H](C)NC1=O)S2` [Thia-V(l)AAAAY (SEQ ID NO. 12)], for which, in data set [2] (setting [8]), the ring closure, yield after HPLC was 35.2%. Molecule `CC(C)[C@@H]1NC2=NC=C(Cc3cc(ccc3O)C[C@@H](C(N)=O)NC(=O)[C@H](C)NC(=O)[C@H](C)NC(=O)[C@H](C)NC(=O)[C@H](C)NC1=O)S2` [Thia-V(d)AAAAY] gave a ring closure, yield after HPLC in data set [2] (setting [8]) of 22.3%.

`C[C@@H]1NC(=O)CNC2=NC=C(Cc3cc(ccc3O)C[C@@H](C(=O)NCC(=O)O)NC(=O)[C@H](C)NC(=O)[C@H](C)NC1=O)S2` returned a ring closure, yield after HPLC in data set [2] (from (5-(hydroxymethyl)thiazol-2-yl)-Gly-Ala-Ala-Ala-Tyr-Gly-OtBu?, 22-membered ring, TfOH, NMM quench, nitromethane, 11.8 mM, 25.0 °C) of 42%. Molecule `C[C@H](NC(=O)[C@H](C)NC(=O)CNC(=O)[C@@H]1Cc2ccc(O)c(c2)CC2=CN=C(NCC(=O)N[C@@H](C)C(=O)N[C@@H](C)C(=O)N[C@@H](C)C(=O)N1)S2)C(N)=O` [Macrocycle] returned a ring closure, yield after HPLC in data set [2] (from (5-(hydroxymethyl)thiazol-2-yl)-Gly-Ala-Ala-Ala-Tyr-Gly-Ala-Ala-NH2?, 22-membered ring, TfOH, NMM quench, nitroethane/TfOH 1:1, 5.4 mM, 25.0 °C) of 62%. In turn, `CC(C)[C@@H]1NC2=NC=C(Cc3cc(ccc3O)C[C@@H](C(N)=O)NC(=O)CNC(=O)[C@H](C)NC(=O)[C@H](C)NC1=O)S2` [Thia-V(l)AAGY (SEQ ID NO. 13) Macrocycle] yielded a ring closure, yield after HPLC in data set [2] (from (5-(hydroxymethyl)thiazol-2-yl)-Val-Ala-Ala-Gly-Tyr-NH2?, 22-membered ring, TfOH, MeNO2, 6.45 mM, 25.0 °C, 2 steps) of 52.7%.

With `CC(C)[C@H]1NC2=NC=C(Cc3cc(ccc3O)C[C@@H](C(N)=O)NC(=O)[C@H](C)NC(=O)[C@H](C)NC1=O)S2` [Thia-V(l)AAY (SEQ ID NO. 11)], the ring closure, yield after HPLC in data set [2] (setting [4]) came out at 11%. In turn, `C[C@@H]1NC(=O)CNC2=NC=C(Cc3cc(ccc3O)C[C@@H](C(N)=O)NC1=O)S2` [“Thia-G-A-Y” Macrocycle] displayed a ring closure, yield after HPLC in data set [2] (from (5-(hydroxymethyl)thiazol-2-yl)-Gly-Ala-Tyr-NH2, 16-membered ring, TfOH, MeNO2, 7.0 mM, 25.0 °C) of 56%. `C[C@@H]1NC(=O)CNC2=NC=C(Cc3cc(ccc3O)C[C@@H](C(N)=O)NC(=O)[C@H](C)NC1=O)S2` [“Thia-G-A-A-Y” (SEQ ID NO. 9) Macrocycle]: in data set [2] (from (5-(hydroxymethyl)thiazol-2-yl)-Gly-Ala-Ala-Tyr-NH2?, 19-membered ring, TfOH, MeNO2, 14.7 mM, 25.0 °C, 2 steps), the ring closure, yield after HPLC is 70.2%. Consider `CC[C@H](C)[C@@H]1NC(=O)[C@@H](NC(=O)OCC2c3ccccc3-c3ccccc32)Cc2ccc(OC)c(c2)CC2=CN=C(NCC(=O)NC[C@@H](C(=O)O)NC(=O)[C@H](CCC(=O)OC)NC(=O)CNC1=O)S2` [Macrocycle], for which the ring closure, yield after HPLC in data set [2] (from (5S,8S,14S,17S)-8-((S)-sec-butyl)-1-(9H-fluoren-9-yl)-17-((2-((5-(hydroxymethyl)thiazol-2-yl)amino)acetamido)methyl)-14-(3-methoxy-3-oxopropyl)-5-(4-methoxybenzyl)-3,6,9,12,15-pentaoxo-2-oxa-4,7,10,13,16-pentaazaoctadecan-18-oic acid, 26-membered ring, TfOH, NMM quench, nitromethane, 5.57 mM, 25.0 °C) came out at 40.3%.

`COc1ccc2cc1CC1=CN=C(NCC(=O)N[C@@H](C)C(=O)NCC(=O)NCC(=O)N3C[C@H](O)[C@@H](O)[C@H]3C2)S1` [Macrocycle Anisomycin-GGAG-Thia] registered a ring closure, yield after HPLC in data set [2] (from (S)-N-(2-(2-((2R,3S,4S)-3,4-Dihydroxy-2-(4-methoxybenzyl)pyrrolidin-1-yl)-2-oxoethylamino)-2-oxoethyl)-2-(2-(5-(hydroxymethyl)thiazol-2-ylamino)acetamido)propanamide?, 22-membered ring) of 53.2%. With `C[C@@H]1NC(=O)[C@H](C)NC(=O)[C@H](C)NC(=O)[C@@H](N)Cc2ccc(O)c(c2)CC2=CN=C(NCCCNC1=O)S2` [Macrocycle], the ring closure, yield after HPLC in data set [2] (from Boc-Tyr-Ala-Ala-Ala-NH-(CH2)3-NH-[5-(hydroxymethyl)thiazol-2-yl]?, 24-membered ring, TfOH, NMM quench, nitromethane, 9.9 mM) was 15.4%.
